Experimental data published in BindingDB's records for doi:10.1016/j.ejmech.2015.12.016 (Shenyang Pharmaceutical University, 2016).

Tests used:
[1] = Inhibition of VEGFR-2 (unknown origin) by tumor cell growth inhibition assay
[2] = Inhibition of VEGFR-1 (unknown origin) by tumor cell growth inhibition assay
[3] = Inhibition of c-Met (unknown origin) by tumor cell growth inhibition assay
[4] = Inhibition of VEGFR-3 (unknown origin) by tumor cell growth inhibition assay

IC50 [1]: 3 nM
IC50 [2]: 3 nM
IC50 [3]: 1 nM
IC50 [4]: 4 nM
Structure (SMILES): Cn1ccnc1-c1cc2c(Oc3ccc(NC(=S)NC(=O)Cc4ccccc4)cc3F)ccnc2s1
